Data: patent publication US7915297B2, “Isoxazole derivatives and use thereof” (SK Holdings Co., Ltd., priority 2005, dated 2011)

Key:
[1] = test system: Wnt/β-catenin signaling (β-catenin activity) in HEK293 cell line; test: Cell-based Wnt agonist screening, TCF luciferase reporter, HEK293 (TCF-FL); parameters: species or system human; details: Homo sapiens, HEK293, 24 h, % of LiCl (20 mM), 24 h, read-out: Max. Activity (%); for Emax at 120 µM: Conc. 120 μM; for Emax at 30 µM: Conc. 30 μM
Text: (§1) In order to measure the in vitro activity of compounds of the present invention, two human cancer cell lines, HEK293 and SW480, which have intact Wnt signaling and show APC gene mutation in the Wnt signaling pathway, respectively, were used.
(§2) For evaluating the activity of wnt/β-catenin signaling in the cancer cell lines, gene as illustrated in FIG. 1 having β-catenin-binding sites of the Tcf/Lef transcriptional control protein (5 sites of TCF, 5X TCF) and having a fire fly luficerase as a marker protein ascertainable the activity of 5X TCF was introduced into the cells. Treatment with G418 led monoclones of the cell lines, in which the genes were permanently expressed, so as to construct a cell-based Wnt agonist screening system. […] For comparison with the activity of the isoxazole derivatives as Wnt agonists, lithium chloride (LiCl), acting as a positive control for the cell-based Wnt agonist screening system, was used to determine the expression level of the luciferase, and the results are shown in FIG. 3.
(§3) The cell lines, in which a cell-based Wnt agonist screening system was constructed, were cultured in RPMI 1640 media supplemented with penicillin-streptomycin (100 Units/mL) and heat-inactivated 5% fetal bovine serum under standard culture conditions (5% CO2, 37° C., 100% relative humidity). […] The suspension was diluted with the same medium to adjust the cell count to 8,000˜15,000 cells per well and was moved then in a 96-well microtiter plate. After being incubated for 24 hrs, the cells were treated with various concentrations of the isoxazole derivatives synthesized in Preparation Examples. Incubation for an additional 24 hours was followed by the quantitative analysis of luciferase activity using a Luciferase Assay kit (Promega, U.S.A.) according to the protocol described in the manual provided by the manufacturer. Data on the activities of the isoxazole derivatives thus synthesized are given in Tables 34 to 43, and are expressed as percentages relative to the activity of the positive control LiCl (20 mM), a well-known agonist of Wnt signaling.

[2] = test system: Wnt/β-catenin signaling (β-catenin activity) in SW480 cell line; test: Cell-based Wnt agonist screening, TCF luciferase reporter, SW480 (TCF-FL); parameters: species or system human; details: Homo sapiens, % of LiCl (20 mM), 24 h, read-out: Max. Activity (%); for Emax at 120 µM: Con. 120 μM; for Emax at 30 µM: Con. 30 μM; for Emax at 60 µM: Con. 60 μM
Text: as §1, §2, §3

Cc1cn(CCNC(=O)c2cc(-c3ccco3)on2)cn1 [Derivative (37), 5-furan-2-yl-isoxazole-3-carboxylic acid [2-(4-methyl-imidazol-1-yl)-ethyl]-amide]
Emax at 120 µM [1]: 44% | Emax at 120 µM [2]: 296%

O=C(NCCCn1ccnn1)c1cc(-c2ccco2)on1 [Derivative (49), 5-furan-2-yl-isoxazole-3-carboxylic acid (3-[1,2,3]triazol-1-yl-propyl)-amide]
Emax at 30 µM [1]: < 20% | Emax at 30 µM [2]: < 20%

O=C(NCCCn1ncnn1)c1cc(-c2ccco2)on1 [Derivative (53), 5-furan-2-yl-isoxazole-3-carboxylic acid (3-tetrazol-2-yl-propyl)-amide]
Emax at 30 µM [1]: < 20% | Emax at 30 µM [2]: < 20%

Cc1cn(CCCNC(=O)c2cc(-c3ccco3)on2)cn1 [Derivative (56), 5-furan-2-yl-isoxazole-3-carboxylic acid [3-(4-methyl-imidazol-1-yl)-propyl]-amide]
Emax at 15 µM ([1]; Conc. 15 μM): 58% | Emax at 30 µM [1]: < 20% | Emax at 600 µM ([2]; Con. 600 μM): 650%

Cc1cncn1CCCNC(=O)c1cc(-c2ccco2)on1 [Derivative (57), 5-furan-2-yl-isoxazole-3-carboxylic acid [3-(5-methyl-imidazol-1-yl)-propyl]amide]
Emax at 30 µM [1]: < 20% | Emax at 30 µM [2]: < 20%

COC(=O)c1cn(CCCNC(=O)c2cc(-c3ccco3)on2)cn1 [Derivative (58), 1-{3-[(5-furan-2-yl-isoxazole-3-carbonyl)-amino]-propyl}-1H-imidazole-4-carboxylic acid methyl ester]
Emax at 30 µM [1]: < 20% | Emax at 30 µM [2]: 270%

O=C(O)c1cn(CCCNC(=O)c2cc(-c3ccco3)on2)cn1 [Derivative (59), 1-{3-[(5-furan-2-yl-isoxazole-3-carbonyl)-amino]-propyl}-1H-imidazole-4-carboxylic acid]
Emax at 30 µM [1]: < 20% | Emax at 60 µM [2]: 592%

O=C(NCCCn1cnc(Br)c1)c1cc(-c2ccco2)on1 [Derivative (60), 5-furan-2-yl-isoxazole-3-carboxylic acid [3-(4-bromo-imidazol-1-yl)-propyl]-amide]
Emax at 30 µM [1]: < 20% | Emax at 30 µM [2]: 196%

Cc1c(C(=O)NCCCn2ccnc2)noc1-c1ccco1 [Derivative (65), 5-furan-2-yl-4-methyl-isoxazole-3-carboxylic acid (3-imidazol-1-yl-propyl)-amide]
Emax at 30 µM [1]: < 20% | Emax at 30 µM [2]: < 20%

CCc1c(C(=O)NCCCn2ccnc2)noc1-c1ccco1 [Derivative (66), 4-ethyl-5-furan-2-yl-isoxazole-3-carboxylic acid (3-imidazol-1-yl-propyl)-amide]
Emax at 30 µM [1]: < 20% | Emax at 30 µM [2]: < 20%

O=C(NCCCn1ccnc1)c1noc(-c2ccco2)c1Cc1ccccc1 [Derivative (67), 4-benzyl-5-furan-2-yl-isoxazole-3-carboxylic acid (3-imidazol-1-yl-propyl)-amide]
Emax at 30 µM [1]: < 20% | Emax at 30 µM [2]: < 20%

O=C(NCCCn1ccnc1)c1cc(-c2ccccc2)on1 [Derivative (68), 5-phenyl-isoxazole-3-carboxylic acid (3-imidazol-1-yl-propyl)-amide]
Emax at 30 µM [1]: 47% | Emax at 60 µM [2]: 486%

O=C(NCCn1ccnc1)c1cc(-c2ccccc2)on1 [Derivative (69), 5-phenyl-isoxazole-3-carboxylic acid (2-imidazol-1-yl-ethyl)-amide]
Emax at 30 µM [1]: < 20% | Emax at 30 µM [2]: < 20%

O=C(NCCc1ccccn1)c1cc(-c2ccccc2)on1 [Derivative (70), 5-phenyl-isoxazole-3-carboxylic acid (2-pyridin-2-yl-ethyl)-amide]
Emax at 60 µM ([1]; Conc. 60 μM): 51% | Emax at 120 µM [2]: 789%

O=C(NCCCn1ccnc1)c1cc(-c2ccccn2)on1 [Derivative (75), 5-pyridin-2-yl-isoxazole-3-carboxylic acid (3-imidazol-1-yl-propyl)-amide]
Emax at 30 µM [1]: < 20% | Emax at 30 µM [2]: < 20%

O=C(NCCCn1ccnc1)c1cc(-c2cccnc2)on1 [Derivative (76), 5-pyridin-3-yl-isoxazole-3-carboxylic acid (3-imidazol-1-yl-propyl)-amide]
Emax at 30 µM [1]: < 20% | Emax at 30 µM [2]: < 20%

O=C(NCCCn1ccnc1)c1cc(-c2ccncc2)on1 [Derivative (77), 5-pyridin-4-yl-isoxazole-3-carboxylic acid (3-imidazol-1-yl-propyl)-amide]
Emax at 30 µM [1]: < 20% | Emax at 30 µM [2]: < 20%

Cc1ccccc1-c1cc(C(=O)NCCCn2ccnc2)no1 [Derivative (78), 5-o-tolyl-isoxazole-3-carboxylic acid (3-imidazol-1-yl-propyl)-amide]
Emax at 120 µM [1]: 42% | Emax at 120 µM [2]: 42%

Cc1cccc(-c2cc(C(=O)NCCCn3ccnc3)no2)c1 [Derivative (79), 5-m-tolyl-isoxazole-3-carboxylic acid (3-imidazol-1-yl-propyl)-amide]
Emax at 10 µM ([1]; Conc. 10 μM): 48% | Emax at 10 µM ([2]; Con. 10 μM): 48%

Cc1ccc(-c2cc(C(=O)NCCCn3ccnc3)no2)cc1 [Derivative (80), 5-p-tolyl-isoxazole-3-carboxylic acid (3-imidazol-1-yl-propyl)-amide]
Emax at 120 µM [1]: 58% | Emax at 120 µM [2]: 58%

O=C(NCCCn1ccnc1)c1cc(-c2ccccc2F)on1 [Derivative (81), 5-(2-fluoro-phenyl)-isoxazole-3-carboxylic acid (3-imidazol-1-yl-propyl)-amide]
Emax at 120 µM [1]: 869% | Emax at 120 µM [2]: 869%

O=C(NCCCn1ccnc1)c1cc(-c2cccc(F)c2)on1 [Derivative (82), 5-(3-fluoro-phenyl)-isoxazole-3-carboxylic acid (3-imidazol-1-yl-propyl)-amide]
Emax at 120 µM [1]: 67% | Emax at 120 µM [2]: 67%

O=C(NCCCn1cncn1)c1cc(-c2ccc(F)cc2)on1 [Derivative (84), 5-(4-fluoro-phenyl)-isoxazole-3-carboxylic acid (3-[1,2,4]triazol-1-yl-propyl)-amide]
Emax at 30 µM [1]: 907% | Emax at 30 µM [2]: 907%

O=C(NCCn1cncn1)c1cc(-c2ccc(F)cc2)on1 [Derivative (88), 5-(4-fluoro-phenyl)-isoxazole-3-carboxylic acid (2-[1,2,4]triazol-1-yl-ethyl)-amide]
Emax at 120 µM [1]: 600% | Emax at 120 µM [2]: 600%

O=C(NCCn1nccn1)c1cc(-c2ccc(F)cc2)on1 [Derivative (89), 5-(4-fluoro-phenyl)-isoxazole-3-carboxylic acid (2-[1,2,3]triazol-2-yl-ethyl)-amide]
Emax at 30 µM [1]: 132% | Emax at 30 µM [2]: 132%

O=C(NCCn1ccnn1)c1cc(-c2ccc(F)cc2)on1 [Derivative (90), 5-(4-fluoro-phenyl)-isoxazole-3-carboxylic acid (2-[1,2,3]triazol-1-yl-ethyl)-amide]
Emax at 30 µM [1]: 92% | Emax at 30 µM [2]: 92%

O=C(NCCn1ncnn1)c1cc(-c2ccc(F)cc2)on1 [Derivative (91), 5-(4-fluoro-phenyl)-isoxazole-3-carboxylic acid (2-tetrazol-2-yl-ethyl)-amide]
Emax at 30 µM [1]: 103% | Emax at 30 µM [2]: 103%

COc1ccccc1-c1cc(C(=O)NCCCn2ccnc2)no1 [Derivative (99), 5-(2-methoxy-phenyl)-isoxazole-3-carboxylic acid (3-imidazol-1-yl-propyl)-amide]
Emax at 120 µM [1]: 37% | Emax at 120 µM [2]: 37%

COc1cccc(-c2cc(C(=O)NCCCn3ccnc3)no2)c1 [Derivative (100), 5-(3-methoxy-phenyl)-isoxazole-3-carboxylic acid (3-imidazol-1-yl-propyl)-amide]
Emax at 120 µM [1]: 59% | Emax at 120 µM [2]: 59%

O=C(NCCCn1ccnc1)c1cc(-c2cccc(O)c2)on1 [Derivative (106), 5-(3-hydroxy-phenyl)-isoxazole-3-carboxylic acid (3-imidazol-1-yl-propyl)-amide]
Emax at 7.5 µM ([1]; Conc. 7.5 μM): 29% | Emax at 30 µM [1]: 277% | Emax at 30 µM [2]: 277%
